Read-outs that look alike come from different tables or passages of the source.
Key:
[1] = system: NK-1 receptor (foot tapping induced by NK-1 agonist GR73632); assay: Gerbil Foot-Tapping (Assay 2); assay type: in vivo, Mongolian gerbil; conditions: Meriones unguiculatus, iv
Description: CNS-penetrant NK-1 receptor antagonists for use in the present invention can be identified by their ability to inhibit foot tapping in gerbils induced by anxiogenic agents (such as pentagastrin) or central infusion of NK-1 receptor agonists such as GR73632, or caused by aversive stimulation such as foot shock or single housing, based on the method of Rupniak & Williams, Eur. J. Pharmacol., 1994, 265, 179.
Male or female Mongolian gerbils (35-70 g) are anaesthetised by inhalation of an isoflurane/oxygen mixture to permit exposure of the jugular vein in order to permit administration of test compounds or vehicle in an injection volume of 5 ml/kg i.v. Alternatively, test compounds may be administered orally or by subcutaneous or intraperitoneal routes. A skin incision is then made in the midline of the scalp to expose the skull.

[2] = system: separation-induced vocalisations by guinea-pig pups; assay: animal or person; conditions: Cavia porcellus, po, 4 h, read-out: guinea-pig vocalisation (4 hr. pre-treatment): ID50
Description: Male and female guinea-pigs pups are housed in family groups with their mothers and littermates throughout the study. Experiments are commenced after weaning when the pups are 2 weeks old. Before entering an experiment, the pups are screened to ensure that a vigorous vocalisation response is reproducibly elicited following maternal separation. The pups are placed individually in an observation cage (55 cm×39 cm×19 cm) in a room physically isolated from the home cage for 15 minutes and the duration of vocalisation during this baseline period is recorded. […] On test days each pup receives an oral dose or an s.c. or i.p. injection of test compound or vehicle and is then immediately returned to the home cage with its mother and siblings for 30 to 60 minutes (or for up to 4 hours following an oral dose, dependent upon the oral pharmacokinetics of the test compound) before social isolation for 15 minutes as described above. […] Between 6 and 8 animals receive each test compound at each dose tested.

Structure (SMILES): C[C@@H](O[C@H]1OCCN(Cc2n[nH]c(=O)[nH]2)[C@H]1c1ccc(F)cc1)c1cc(C(F)(F)F)cc(C(F)(F)F)c1 [2-(R)-(1-(R)-(3,5-bis(trifluoromethyl)phenyl)-ethoxy)-3-(S)-(4-fluorophenyl)-4-(3-(5-oxo-1H, 4H-1,2,4-triazolo)methyl)-morpholine]
- ED50 ([1]; 5 min, i.v. immediately prior to GR73632 challenge, read-out: gerbil foot-tapping (5 mins.): ID50): 0.36 mg/kg
- ED50 ([1]; 24 hrs., i.v. 24 hours prior to central NK1 agonist challenge, read-out: gerbil foot-tapping (24 hrs.): ID50): 0.33 mg/kg
- ED50 [2]: 0.73 mg/kg

Reference: US5925627A, “Use of NK-1 receptor antagonists for treating movement disorders” (Merck Sharp & Dohme Ltd., priority 1996, dated 1999)
